Measured values taken from patent publication US7303876B2 (Applera Corporation, priority 2000, dated 2007).

What was measured:
Calf thymus DNA = test: Effect of DTAB on DNA recovery when added before, during, and after DNA binding to GF/B; conditions: pretreatment with 5M salt with 1% DTAB (D+) versus without (D−)
Experimental: The inhibitory effect of the cationic surfactant, DTAB, was further examined. DTAB was introduced at various points of the purification reaction, before DNA binding, during binding, or after DNA binding has occurred on the solid phase. DNA binding and purification procedures were carried out using GF/B glass fiber filters (in a 96-well format) on the ABI PRISM 6100.
In set A, the GF/B membrane was pretreated with 100 μl of liquid lacking (A−) or containing (A+) 1% DTAB. Calf thymus DNA (8 μg) was then bound in 800 μL of 50 mM MES, pH 6.0, 20 mM EDTA, and 5 M salt (either NaBr or GUSCN).
In set B, the membranes were not prewashed. Calf thymus DNA (8 μg) was bound to GF/B glass fiber filters in 800 μl of 50 mM MES, pH, 6.0, 20 mM EDTA, and 5 M salt (either NaBr or GuSCN). Following binding, the membranes were washed in 50 mM MES, pH 6.0, 20 mM EDTA and 5 M salt (either NaBr or GuSCN) either lacking (B−) or containing (B+) 1% DTAB.
In set C, the membranes were not prewashed. Calf thymus DNA (8 μg) was bound to GF/B glass fiber filters in 800 μl of 50 mM MES, pH 6.0, 20 mM EDTA, and 5 M salt (either NaBr or GUSCN) either lacking (C−) or containing (C+) 1% DTAB.
In set D, the GF/B membrane was pretreated with 100 μl of 5 M salt (either NaBr or GuSCN) lacking (A−) or containing (A+) 1% DTAB. […]

Liver tissue = Liver tissue disaggregation by 1% surfactant with or without Proteinase K at 60° C.; conditions: 60° C., 1% surfactant
[1] = Solubility of 1% cationic surfactants in 5M chaotropic salt solutions containing 2% Tween 20; conditions: 5M chaotropic salts, 2% Tween 20
From the text: The solubilities of several cationic surfactants were examined in different chaotropic salt solutions. The cationic surfactants examined were cetyltrimethylammonium bromide (CTAB), cetyltrimethylammonium chloride (CTACl), tetradecyltrimethylammonium bromide (TTAB), tetradecyltrimethylammonium chloride (TTACl), dodecyltrimethylammonium bromide (DTAB), dodecyltrimethylammonium (DTACl), dodecylethyidimethylammonium bromide (DEDTAB), decyltrimethylammonium bromide (D10TAB), and dodecyltriphenylphosphonium bromide (DTPB). Each of the cationic surfactants tested was presented in a 1% concentration. Each of the cationic surfactants was examined in a 5M solution of one of the chaotropic salts containing 2% Tween 20. Each cationic surfactant and salt combination was tested at pH 6 (50 mM MES), pH 8 (50 mM Tris-HCl), and pH 10 (50 mM AMP).

## CCCCCCCCCCCC[N+](C)(C)C.[Br-] [DTAB, dodecyltrimethylammonium bromide]
Calf thymus DNA
  subsequent binding of nucleic acid to GF/B: did not appear to influence subsequent binding of nucleic acid
Liver tissue; Fifteen Minutes Incubation, Proteinase K not present (N)
  Tissue Disaggregation: 0
Liver tissue; Fifteen Minutes Incubation, Proteinase K present (Y)
  Tissue Disaggregation: 2
Liver tissue; Fifty-Two Minutes Incubation, Proteinase K not present (N)
  Tissue Disaggregation: 0
Liver tissue; Fifty-Two Minutes Incubation, Proteinase K present (Y)
  Tissue Disaggregation: 3
[1]
  relative solubility in chaotropic salt solutions (in words): more soluble than larger surfactants
